From PMC9649612, “Molecular docking and biochemical validation of (-)-syringaresinol-4-O-β-D-apiofuranosyl-(1→2)-β-D-glucopyranoside binding to an allosteric site in monoamine transporters” (Frontiers in Pharmacology, 2022)

How the values were obtained:
[1] = molecular target: T1, hDAT Q317A (S2 site mutant) (Homo sapiens, UniProt Q01959, Q317A); assay: APP+ transport in HeLa cells expressing hDAT mutant Q317A; format: cell-based; conditions: intact HeLa cells, read-out: SAG IC50
T1 construct: expressed in transfected cells; host or cells: HeLa
Experimental: (§1) The mutants used for this study were constructed in the WT background carried by the expression plasmids for hSERT, hDAT, or hNET under the control of CMV promotor in pcDNA3.1 vector, respectively. All mutants were generated using the Mut Express II Fast Mutagenesis Kit (Vazyme) and confirmed by full-length DNA sequencing.
(§2) HeLa cells were cultured in Dulbecco’s Modified Eagle’s Medium supplemented with 10% fetal bovine serum, 100 units/ml penicillin, and 100 μg/ml streptomycin at 37°C in a humidified 5% CO2 incubator. Cells were plated in a 6-well culture plate and grown overnight. Cells at ∼70% confluence were transfected with hSERT, hDAT, or hNET cDNA in pcDNA3.1 by lipofectamine 2000. […] After grown for additional 12–16 h, the cells were assayed for APP^+ or ASP^+ fluorescence image acquisition.
(§3) The cells expressing WT or mutants of hSERT, hDAT, or hNET were wet mounted on polylysine coated glass slides in 12-well plates and applied for the indicated treatments. […] The extent of APP^+ accumulated in the cells was determined by confocal imaging analysis. ASP^+ binding to SERT in the cell membrane was measured with digitonin-permeabilized cells ([Li M. et al., 2022a]). […] After removing excess ASP^+ by rapid washing three times, ASP^+ binding was determined by confocal imaging analysis.
(§4) Images were analyzed using Zen Blue software. […]

WT-hNET = molecular target: T2, WT-hNET (Homo sapiens, UniProt P23975); assay: APP+ transport (uptake) in HeLa cells expressing WT-hNET; format: cell-based; conditions: WT hNET; APP+ transport, intact HeLa cells; read-out: SAG IC50
T2 construct: expressed in transfected cells; host or cells: HeLa
Experimental: HeLa cells were cultured in Dulbecco’s Modified Eagle’s Medium supplemented with 10% fetal bovine serum, 100 units/ml penicillin, and 100 μg/ml streptomycin at 37°C in a humidified 5% CO2 incubator. Cells were plated in a 6-well culture plate and grown overnight. Cells at ∼70% confluence were transfected with hSERT, hDAT, or hNET cDNA in pcDNA3.1 by lipofectamine 2000. Transfected cells were incubated for 24 h at 37°C with 5% CO2 and then transferred into a 12-well plate placed with polylysine coated slides. After grown for additional 12–16 h, the cells were assayed for APP^+ or ASP^+ fluorescence image acquisition.
as §3
Images were analyzed using Zen Blue software.
Nonlinear regression fits of experimental and calculated data were performed with Origin (Origin Lab). […]

[2] = molecular target: T3, hNET W559A (S2 site mutant) (Homo sapiens, UniProt P23975, W559A); assay: APP+ transport in HeLa cells expressing hNET mutant W559A; format: cell-based; conditions: intact HeLa cells, read-out: SAG IC50
T3 construct: expressed in transfected cells; host or cells: HeLa
Experimental: as §1, §2, §3, §4

[3] = molecular target: T4, hSERT Q562N (S2 site mutant) (Homo sapiens, UniProt P31645, Q562N); assay: APP+ transport in HeLa cells expressing hSERT mutant Q562N; format: cell-based; conditions: 2 μM APP+ 5 min, intact HeLa cells, read-out: SAG IC50 for transport
T4 construct: expressed in transfected cells; host or cells: HeLa (ATCC CCL-2), transient, pcDNA3.1
Experimental: as §1, §2, §3, §4

[4] = molecular target: T5, hNET L563A (S2 site mutant) (Homo sapiens, UniProt P23975, L563A); assay: APP+ transport in HeLa cells expressing hNET mutant L563A; format: cell-based; conditions: intact HeLa cells, read-out: SAG IC50
T5 construct: expressed in transfected cells; host or cells: HeLa
Experimental: as §1, §2, §3, §4

[5] = molecular target: T6, hNET F317A (S2 site mutant) (Homo sapiens, UniProt P23975, F317A); assay: APP+ transport in HeLa cells expressing hNET mutant F317A; format: cell-based
T6 construct: expressed in transfected cells; host or cells: HeLa
Experimental: as §1, §2, §3, §4

[6] = molecular target: T7, hSERT E494Q (S2 site mutant) (Homo sapiens, UniProt P31645, E494Q); assay: APP+ transport in HeLa cells expressing hSERT mutant E494Q; format: cell-based; conditions: 2 μM APP+ 5 min, intact HeLa cells, read-out: SAG IC50 for transport
T7 construct: expressed in transfected cells; host or cells: HeLa (ATCC CCL-2), transient, pcDNA3.1
Experimental: as §1, §2, §3, §4

[7] = molecular target: T8, hSERT P560G (S2 site mutant) (Homo sapiens, UniProt P31645, P560G); assay: ASP+ binding in digitonin-permeabilized HeLa cells expressing hSERT P560G; conditions: 10 μM ASP+, read-out: SAG IC50 for binding
T8 construct: expressed in transfected cells; host or cells: HeLa (ATCC CCL-2), transient, pcDNA3.1
Experimental: as §1, §2, §3, §4

T6 sequence (P23975 whole entry F317A): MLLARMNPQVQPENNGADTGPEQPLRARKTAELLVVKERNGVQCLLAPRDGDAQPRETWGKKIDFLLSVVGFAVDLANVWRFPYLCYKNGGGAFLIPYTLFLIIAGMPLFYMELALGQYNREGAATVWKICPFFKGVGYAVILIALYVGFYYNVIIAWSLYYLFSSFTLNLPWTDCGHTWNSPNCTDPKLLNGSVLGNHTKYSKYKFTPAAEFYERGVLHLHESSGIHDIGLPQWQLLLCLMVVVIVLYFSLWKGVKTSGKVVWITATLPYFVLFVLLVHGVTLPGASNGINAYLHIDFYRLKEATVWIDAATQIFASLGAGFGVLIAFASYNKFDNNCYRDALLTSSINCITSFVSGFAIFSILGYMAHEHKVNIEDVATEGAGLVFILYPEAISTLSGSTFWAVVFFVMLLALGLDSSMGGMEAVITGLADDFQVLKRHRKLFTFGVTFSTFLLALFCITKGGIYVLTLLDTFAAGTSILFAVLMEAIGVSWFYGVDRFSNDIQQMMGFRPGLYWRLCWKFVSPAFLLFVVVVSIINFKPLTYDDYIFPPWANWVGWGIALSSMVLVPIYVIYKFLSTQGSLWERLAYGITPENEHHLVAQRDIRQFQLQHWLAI
T1 sequence (Q01959 whole entry Q317A): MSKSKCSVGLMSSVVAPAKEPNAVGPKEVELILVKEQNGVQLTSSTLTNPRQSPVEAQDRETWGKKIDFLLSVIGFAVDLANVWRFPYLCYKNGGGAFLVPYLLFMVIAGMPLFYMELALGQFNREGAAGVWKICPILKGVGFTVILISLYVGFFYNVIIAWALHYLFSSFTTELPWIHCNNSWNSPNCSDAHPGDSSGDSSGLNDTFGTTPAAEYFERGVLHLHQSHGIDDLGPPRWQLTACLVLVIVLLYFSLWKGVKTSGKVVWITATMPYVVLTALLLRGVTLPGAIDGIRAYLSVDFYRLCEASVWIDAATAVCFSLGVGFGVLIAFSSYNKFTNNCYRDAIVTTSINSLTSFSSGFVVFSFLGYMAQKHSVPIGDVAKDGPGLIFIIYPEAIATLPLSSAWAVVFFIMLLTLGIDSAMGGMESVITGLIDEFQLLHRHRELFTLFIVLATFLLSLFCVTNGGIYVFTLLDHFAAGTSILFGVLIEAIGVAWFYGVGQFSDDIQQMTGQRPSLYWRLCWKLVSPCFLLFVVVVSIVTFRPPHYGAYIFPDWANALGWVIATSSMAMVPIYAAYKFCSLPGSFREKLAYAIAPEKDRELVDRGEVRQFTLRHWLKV
T3 sequence (P23975 whole entry W559A): as the sequence (P23975 whole entry F317A) above, with A317F, W559A counted along it
T2 sequence (P23975 whole entry): as the sequence (P23975 whole entry F317A) above, with A317F counted along it
T5 sequence (P23975 whole entry L563A): as the sequence (P23975 whole entry F317A) above, with A317F, L563A counted along it

Substance: (-)-Syringaresinol-4-O-β-D-apiofuranosyl-(1→2)-β-D-glucopyranoside [SAG]
- IC50 [1]: 51.3 ± 3.1 µM
- IC50 (WT-hNET): 40.1 ± 2.8 µM
- IC50 [2]: > 1000 µM
- IC50 [3]: 289 ± 11 µM
- IC50 [4]: 304 ± 12 µM
- Change in SAG inhibition potency compared to WT ([5]; hNET F317A vs WT-hNET): little change
- IC50 ([5]; hNET F317A, intact HeLa cells, read-out: SAG IC50): 36.7 ± 7.6 µM
- IC50 [6]: 153 ± 2 µM
- IC50 [7]: 324 ± 28 µM
